Assay [1] has as its system left ventricular (LV) muscle mass and LV systolic and diastolic function. The conditions noted are these: 58 patients with primary glomerulonephritis and moderate chronic renal failure; cited from earlier work.
Assay [2] deals with left ventricular hypertrophy (LVH) in ESRD dialysed patients. The assay is described as follows: Clinical trial of propionyl L-carnitine in ESRD patients on dialysis (multicentre, randomized, double-blind, placebo-controlled; echocardiography). The format is in vivo. Here is the method:
A clinical trial (multicentre, parallel, randomized, double-blind, dose-ranging placebo-controlled study in 300 patients) useful for evaluating both preventive and/or curative effect of the treatment with propionyl L-carnitine (3 and 6 mg/kg given intravenously three times a week at the end of the hemodyalisis session for 26 weeks) has been done.
Inclusion Criteria • 1) male or female out-patients aged >18 years, suffering from ESRD on bicarbonate dialysis three times a week; • 2) patients who have reached a certain degree of dialytic stability (at least since six months on dialysis), so that the variability due to the progressive patient adaptation of the therapeutic treatment is controlled, presenting no clinical signs of hydric overload at the end of dialysis; • 3) patients showing a degree of cardiac deterioration defined as inter-ventricular septum and left ventricular wall thickness >11 mm; • 4) patients with left ventricular ejection fraction >40%; • 5) patients under stable pharmacological treatment for at least three months; • 6) absence of acute ischaemic events (effort angina, unstable angina, AMI) during the last three months; • 7) presence of an adequate acoustic window and a good echogenicity; • 8) capacity of co-operating with the administered questionnaire. […]

Structures are written as SMILES.

With `C[C@H](CS)C(=O)N1CCC[C@H]1C(=O)O` [captopril], in assay [1], the “LV ejection fraction, early and late transmittal flow velocities and early to late LV inflow velocities ratio” value is recorded as “not significantly affected”.

As for `CCOC(=O)[C@H](CCc1ccccc1)N[C@@H](C)C(=O)N1CCC[C@H]1C(=O)O` [enalapril], the “LV ejection fraction, early and late transmittal flow velocities and early to late LV inflow velocities ratio” value in assay [1] was “not significantly affected”.

Regarding `CCC(=O)O[C@H](CC(=O)[O-])C[N+](C)(C)C` [propionyl L-carnitine], in assay [2] (3 and 6 mg/kg intravenously three times a week at end of hemodialysis for 26 weeks, preliminary ANOVA analysis, treated versus control group), the “signs of LVH (a)-(c): left-ventricular septum and posterior wall thickness, end-systolic and end-diastolic size and volume, ejection fraction” value was “useful for treating the signs of LVH”. Also, the “progression of the signs of LVH (a)-(c) respect to base line” value in assay [2] (3 and 6 mg/kg intravenously three times a week for 26 weeks, T26 vs T0 in treated group, control group worsened) is “able to reduce the progression of the signs of LVH”.

Source of the values: patent publication US20080234373A1, “Compound Useful For the Prevention and Treatment of Left Ventricular Hypertrophy in Dialysed Patients” (SIGMA-TAU INDUSTRIE FARMACEUTICHE RIUNITE S.P.A., priority 2005, published 2008).
